Drawing on paper PMC8341977, “Towards novel herbicide modes of action by inhibiting lysine biosynthesis in plants” (eLife, 2021), this text covers IC50 for 2 compounds.

Where two headings read alike, the source gives them in different places.

Assay [1] concerns the target T1, AtDHDPS2 (dihydrodipicolinate synthase 2) (Arabidopsis thaliana, UniProt Q9FVC8).
T1 construct: gene DHDPS2; recombinant, fusion tag cleaved
T1 sequence (Q9FVC8 40-365): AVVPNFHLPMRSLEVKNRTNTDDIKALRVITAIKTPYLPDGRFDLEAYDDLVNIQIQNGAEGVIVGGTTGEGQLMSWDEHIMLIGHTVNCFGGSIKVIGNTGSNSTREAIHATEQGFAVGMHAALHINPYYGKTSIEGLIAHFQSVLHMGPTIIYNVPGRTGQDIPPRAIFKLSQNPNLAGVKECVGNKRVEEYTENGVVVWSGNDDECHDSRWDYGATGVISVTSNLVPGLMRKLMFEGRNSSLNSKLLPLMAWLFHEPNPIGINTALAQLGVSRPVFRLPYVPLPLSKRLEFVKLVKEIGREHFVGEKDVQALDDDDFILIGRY
Description: DHDPS–DHDPR coupled enzyme assay (NADPH oxidation). Format: biochemical.

Assay [2] has as its target T2, AtDHDPS1 (dihydrodipicolinate synthase 1) (Arabidopsis thaliana, UniProt Q9LZX6).
T2 construct: gene DHDPS1; recombinant, fusion tag cleaved
T2 sequence (Q9LZX6 40-365): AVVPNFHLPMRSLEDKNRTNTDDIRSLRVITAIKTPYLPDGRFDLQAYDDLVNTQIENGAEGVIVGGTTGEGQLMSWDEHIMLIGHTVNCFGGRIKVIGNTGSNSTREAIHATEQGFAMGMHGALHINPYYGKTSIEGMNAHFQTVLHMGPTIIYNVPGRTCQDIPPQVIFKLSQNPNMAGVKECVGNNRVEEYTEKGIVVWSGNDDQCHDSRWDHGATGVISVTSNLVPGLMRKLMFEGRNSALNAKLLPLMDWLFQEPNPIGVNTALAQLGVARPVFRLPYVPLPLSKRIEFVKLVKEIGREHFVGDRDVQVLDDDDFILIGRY
Description: DHDPS–DHDPR coupled enzyme assay (NADPH oxidation). The class given is biochemical.

Compound `COc1ccc(C=C2SC(=O)N(CC(=O)O)C2=O)cc1` (stereo in doubt) [MBDTA-2, (Z)−2-(5-(4-methoxybenzylidene)−2,4-dioxothiazolidin-3-yl)acetic acid] had an IC50 in assay [1] of 64 ± 1 µM. On to `COc1ccccc1/C=C1\SC(=O)N(CC(=O)O)C1=O` [MBDTA-1, (Z)−2-(5-(2-methoxybenzylidene)−2,4-dioxothiazolidin-3-yl)acetic acid], for which the IC50 was 116 ± 5.2 µM in assay [1] (read-out: IC50) and 126 ± 6.5 µM in assay [2].

What is called IC50 is the concentration that inhibits the measured activity by half.
